# Where a name gives a salt, the structure may show the parent alone.
# Tested on: not given
# Test: not given
# Details: not given
row,Structure (SMILES),melting point [°C]
1,"COc1ccc(CNc2nc(-c3ccc(C(=O)O)cc3)nc3c2c2c(n3C(C)c3ccccc3)CCCC2)cc1Cl (stereo not shown) (as salt: potassium) [Example 1, 4-[4-(3-chloro-4-methoxybenzylamino)-9-(1-phenylethyl)-6,7,8,9-tetrahydro-5H-1,3,9-triazafluoren-2-yl]benzoic acid]",179
2,"O=C(O)c1ccc(-c2nc(NCc3ccc4c(c3)OCO4)c3c4c(oc3n2)CCCC4)cc1 (as salt: salt) [Example 2, 4-[4-(3,4-methylenedioxybenzylamino)-5,6,7,8-tetrahydrobenzo[4,5]furo[2,3-d]pyrimidin-2-yl]benzoic acid]",205
3,"COc1ccc(CNc2nc(CCCC(=O)O)nc3oc4c(c23)CCCC4)cc1Cl (as salt: salt) [Example 3, 4-[4-(3-chloro-4-methoxybenzylamino)-5,6,7,8-tetrahydrobenzo[4,5]furo[2,3-d]pyrimidin-2-yl]butyric acid]",205
4,"CCn1c2ccccc2c2c(NCc3ccc4c(c3)OCO4)nc(-c3ccc(C(=O)O)cc3)nc21 (as salt: sodium) [Example 7, 4-[4-(3,4-methylenedioxybenzylamino)-9-ethyl-9H-1,3,9-triazafluoren-2-yl]benzoic acid]",> 250
5,"COc1ccc(CNc2nc(-c3ccc(C(=O)O)cc3)nc3c2c2ccccc2n3C)cc1Cl (as salt: sodium) [Example 8, 4-[4-(3-chloro-4-methoxybenzylamino)-9-methyl-9H-1,3,9-triazafluoren-2-yl]benzoic acid]",> 250
6,"COc1ccc(CNc2nc(CN3CCC(C(=O)O)CC3)nc3oc4c(c23)CCCC4)cc1Cl [Example 4, 1-[4-(3-chloro-4-methoxybenzylamino)-5,6,7,8-tetrahydrobenzo[4,5]furo[2,3-d]pyrimidin-2-ylmethyl]piperidine-4-carboxylic acid]",233 to 235

# Target: cGMP phosphodiesterase (PDE V) (Homo sapiens, UniProt O76074)
# Test: Affinity to PDE V (IC50, inhibition of enzyme activity)
# Format: biochemical
# Details: concentration of the inhibitor needed to achieve 50% inhibition of the enzyme activity
# Protocol: The biological activity of the compounds of the formula I can be determined by methods as described, for example, in WO 93/06104.
# The affinity of the compounds according to the invention for cGMP and cAMP phosphodiesterase is determined by measuring their IC50 values (concentration of the inhibitor needed to achieve 50% inhibition of the enzyme activity).
# The determinations can be carried out using enzymes isolated by known methods (for example W. J. Thompson et al., Biochem. 1971, 10, 311). The experiments can be carried out using a modified batch method of W. J. Thompson and M. M. Appleman (Biochem. 1979, 18 5228).
row,Structure (SMILES),IC50 [nM]
1,"COc1ccc(CNc2nc(-c3ccc(C(=O)O)cc3)nc3c2c2c(n3C(C)c3ccccc3)CCCC2)cc1Cl (stereo not shown) [Example 1, 4-[4-(3-chloro-4-methoxybenzylamino)-9-(1-phenylethyl)-6,7,8,9-tetrahydro-5H-1,3,9-triazafluoren-2-yl]benzoic acid]",300

# Source: patent publication US7312224B2, “Pyrimidine derivatives” (Merck Patent GmbH, priority 2001, dated 2007)
